# Entries after “also recorded” stand apart in the source; their conditions may differ.
# Key:
# [1] = system: protease activity in open and chronic wound fluids; assay: Azocoll assay of protease activity in open and chronic wound fluids; assay type: biochemical, human
# Description: (§1) Fluids were collected from 3 types of human wounds termed closed spontaneously healing wounds, open slowly healing wounds, and open chronic wounds. In the first category were fluids collected from the chest wall of women following mastectomy surgery. Fluids from non-infected wounds that were left open for valid surgical reasons were considered open slowly healing wounds. An occlusive dressing was placed over the wound bed, and fluids were collected after 2-6 hours of occlusion. Finally, fluids were also collected from chronic open wounds by covering the wounds with occlusive dressings. Wounds were considered to be chronic if they were not clinically infected and had been open and not healing for more than 4 weeks.
# (§2) The various wound fluids were assayed for matrix metalloproteinase activity using the Azocoll assay essentially as described by Chavira, et al., Analytic Biochemistry (1984), 136:446.
# (§3) The fluids were centrifuged, and the supernatants filtered using a 0.45μ sterile Gelman filter. The filtrates were stored frozen at -80° C. until tested for protease activity.
# (§4) The effects of four inhibitors on the protease activity present in wound fluids were determined. The inhibitors were: compounds
# These inhibitors were compared to certain other inhibitors and these were UL001 [HSCH2 CH(CH2 CH(CH3)2)CO--Phe--Ala--NH2 ] obtained from Peptides International and MP506, obtained from Elastin Products. EDTA (ethylenediamine tetraacetic acid) and PMSF (phenylmethylsulfonyl fluoride) were also studied.
# (§5) Briefly, 900 μl of the Azocoll substrate suspension in buffer ([…] in 50 mM TRIS, pH 7.8, 1 mM CaCl2) was added to 1.5 ml microcentrifuge tubes then 50 μl of inhibitor (or buffer) and 50 μl of chronic wound fluid (or collagenase standard) were added to the reaction tube. The reaction tubes were placed at 37° C. in a shaker that inverted the tubes 30 times per minute. After 24 hours of incubation, the reaction tubes were centrifuges at 10,000 X g and the absorbance of the supernatant solution was measured at 520 nm with a Milton-Roy spectrophotometer. Proteolysis of Azocoll substrate generates soluble colored fragments from the insoluble Azocoll substrate. Wound fluid samples were incubated alone or with the inhibitors. Controls included incubation of the Azocoll substrate with the assay buffer to measure spontaneous degradation of the substrate. A standard curve for digestion of the Azocoll substrate was generated by incubation of the Azocoll with crude bacterial collagenase. Protease levels were expressed as net μg of collagenase equivalent per ml of chronic wound fluid. In the figures, certain of the wound fluids are referred to by an individual name.
# [2] = system: PdiBu-Induced Epidermal Hyperplasia; assay: PdiBu-induced epidermal hyperplasia mouse model (psoriasis); assay type: in vivo, hairless mice
# Description: The phorbol ester, PdiBu (20 nmol in 20 μl if acetone) was applied to both ears of hairless mice (h/h) (approximately 1 cm^2 each). The test compounds (in total volume of 20 μl) were then applied to the right ear immediately (15 to 30 min) following PdiBu. The left ear of each animal received an equivalent amount (20 μl) of vehicle. Test compounds (and vehicle) were reapplied at 6 and 18 hours following PdiBu. Treatment times were staggered to allow exact time intervals to be obtained. At 30 hours after PdiBu, animals were anesthetized, and ear thickness values were obtained using a microcaliper. The weights of punch biopsies (6mm) were then obtained. Histology was performed on selected samples taken at 30 hours.
# Left ear in each animal served as vehicle-treated controls (PdiBu+ETOH). Thus, the controls for this series include: 1) Untreated controls; 2) PdiBu plus vehicle alone (included for each mouse tested); 3) PdiBu plus AHA; 4) PdiBu plus Lidex® as a positive control.
# [3] = system: protease activity of chronic wound fluid; assay: Azocoll assay of protease activity in chronic wound fluid; assay type: biochemical, human
# Description: as §1, §2, §3, §4
# Stock solutions of the four inhibitors were all prepared at a concentration of 800 μg/ml. Due to different solubility properties of the inhibitors, different techniques were utilized. […] S1209 was dissolved in 1% DMSO then dissolved in 10 mM citrate, pH 5.5, containing 0.05% methyl cellulose. 39A was dissolved in propylene glycol (to give a final concentration of 2.4%) then dissolved in 1 mM CaCl2, 50 mM Tris-Cl, pH 7.8. 21A was dissolved in propylene glycol (2.4%) methyl cellulose (0.05%) and 10 mM citrate, pH 8.
# The protease substrate, Azocoll, was obtained from Sigma Chemical Corporation and it is a substrate for collagenase/gelatinase-like metalloproteinase enzymes and general proteases. Clostridium histolyticum collagenase (the crude form of the enzyme) was from Worthington Biochemicals. General chemicals including TRIS buffer, DMSO, and CaCl2 were from Sigma Chemical Corporation.
# as §5
# For these experiments, due to the different solubility properties of the inhibitors, different techniques were utilized. […] S1209 was dissolved in 1% DMSO then dissolved in 10 mM citrate, pH 5.5, containing 0.05% methyl cellulose. 39A was dissolved in propylene glycol (to give a final concentration of 2.4%) then dissolved in 1 mM CaCl2, […] Tris-Cl, pH 7.8. 21A was dissolved in propylene glycol (2.4%) methyl cellulose (0.05%) and 10 mM citrate, pH 8.
# hypovolemic shock = assay: hypovolemic shock, trauma-hemorrhage and resuscitation, non-heparinized rat; assay type: in vivo, Sprague-Dawley rats
# Description: This experiment relates to metalloprotease inhibitors in treating hypovolemic shock when administered systemically (via i.v. injection, infusion or other appropriate route) during resuscitation following hemorrhage-induced shock in a non-heparinized animal.
# Following hemorrhage, Ringer's lactate (3X maximum bleedout volume) was given over 45 minutes followed by Ringer's lactate (2X maximum bleedout volume) over 60 minutes. […] Sham-operated animals underwent blood vessel cannulation and midline incision, but hemorrhage and resuscitation was not induced. […] Saline-treated underwent trauma-hemorrhage and fluid resuscitation plus vehicle (an equal volume of normal saline) treatment.
# B16-F10 murine melanoma = assay: experimental metastasis assay in C57 mice; assay type: in vivo, Female C57 BL/6 mice; details: days 35-37; 150 mg/kg/d ip; p<0.05
# Description: Female C57 BL/6 mice, 4-6 weeks old (15-20 grams), from Simonsen Laboratories (Gilroy, Calif.) were used for this assay.
# The B16-F10 murine melanoma was obtained from the American Type Tissue Culture Collection, and routinely propagated in DMEM (Dulbecco's modified eagles medium)+10% fetal calf serum in plastic tissue culture flasks in a humidified 5% CO2 incubator at 37° C. B16-F10 tumor cells were harvested with trypsin-EDTA (ethylenediamine-tetraacetic acid), washed with PBS (phosphate buffered saline, 2x), resuspended at a concentration of 5×10^5 cells/ml, and held on ice prior to injection. Animals were challenged with 5×10^4 cells in a volume of 0.1 ml intravenously (10 animals/treatment group). Animals were randomly distributed prior to assignment to treatment groups.
# Survival times were recorded for animals in the various treatment groups, and results were evaluated using Chi-Squared statistical analysis.
smiles,measurement,setting,value
"CNC(=O)[C@H](Cc1c[nH]c2ccccc12)NC(=O)[C@@H](CC(=O)NO)CC(C)C [Compound 5A, N-[D,L-2-isobutyl-3-(N'-hydroxycarbonylamido)-propanoyl]-tryptophan methylamide]",effect on proteolytic activity of open and chronic wound fluids,[1]; FIG. 5,very effective inhibitors
same,inhibition of Azocoll-degrading proteases in wound fluids,[1]; FIG. 6,very effectively; also recorded: very effective inhibitors
same,reduction of proteolytic activity in open or chronic wound fluids,[1]; fluids with high levels of Azocoll-degrading protease activity,95%
same,skin biopsy weight,"[2]; PdiBu + 5A, 0.51 μmol/ear at 0.25 and 24 hours, 6 mm punch",13.4 ± 1.5 mg
same,"skin biopsy weight, % of Control","[2]; PdiBu + 5A, 0.51 μmol/ear at 0.25 and 24 hours, of untreated control",146%
same,ear thickness,"[2]; PdiBu + 5A, topical 0.51 μmol/ear",18.6 ± 1.6 inch × 10^-3
same,"ear thickness, % of Control","[2]; PdiBu + 5A, topical 0.51 μmol/ear, of untreated control",140%
same,PdiBu-induced epidermal hyperplasia,[2]; histology,inhibited; also recorded: completely prevents; also recorded: decreased inflammation and epidermal hyperplasia
same,PdiBu-induced extravasation of RBC's,[2]; histology,inhibited
same,PdiBu-induced migration of inflammatory cells into dermis and epidermis,[2]; histology,inhibited
same,epidermal morphology,[2]; histology,more normal appearing epidermal morphology
same,anti-inflammatory activity,[2]; in vivo model for psoriasis,potent anti-inflammatory activity; also recorded: nearly comparable to that observed with Lidex®
same,effect on PdiBu-induced ear thickness,[2]; topical,significantly inhibited
same,effect on PdiBu-induced increase in punch biopsy weight,[2]; topical,significantly inhibited
same,effective concentrations (order of magnitude),[3]; FIG. 4,μM
same,inhibition of protease activity of a chronic wound fluid,[3]; FIG. 4,effectively inhibited; also recorded: much more potent that EDTA
same,inhibition of proteolytic degradation of Azocoll,"[3]; FIG. 4, 0.4 μg/ml (0.1 μM)",approximately 92%
same,inhibition of proteolytic degradation of Azocoll,"[3]; FIG. 4, 4 μg/ml (1 μM)",approximately 92%
same,inhibition of proteolytic degradation of Azocoll,"[3]; FIG. 4, 4 μg/ml (10 μM)",approximately 96%
same,inhibition of proteolytic degradation of Azocoll,"[3]; FIG. 4, 40 μg/ml (100 μM)",approximately 96%
same,protease activity of chronic wound fluid after addition of inhibitor,"[3]; FIG. 7, 800 μg/ml, untreated 284±52",45±1 μg collagenase equivalents/ml of wound fluid
same,inhibition of protease activity of chronic wound fluid,"[3]; FIG. 7, highest concentration (800 μg/ml)",84%
same,"protease activity of chronic wound fluid after addition of inhibitor, lower concentrations","[3]; FIG. 7, lower concentrations, untreated 284±52",up to 90±6 μg collagenase equivalents/ml of wound fluid
same,hepatocellular function (Vmax and Km),hypovolemic shock; 2 and 4 hours,improved hepatic function relative to saline group; also recorded: restores or significantly improves
same,Vmax of indocyanine green clearance versus saline group,hypovolemic shock; 2 h,significantly higher
same,maximal clearance rate (Vmax) of indocyanine green,"hypovolemic shock; 2 h after resuscitation, of sham level",about 85%
same,microvascular blood flow versus saline group,"hypovolemic shock; 2 h and 4 h, liver, kidney, spleen, small intestine",elevated relative to the saline group; also recorded: restores or significantly improves
same,microvascular blood flow,"hypovolemic shock; 2 h and 4 h, of sham, liver, kidney, spleen, small intestine",80-100%
same,Vmax of indocyanine green clearance versus saline treated animals,hypovolemic shock; 4 h,two-fold that of saline treated animals
same,total peripheral resistance,"hypovolemic shock; following resuscitation, versus saline or sham",lower following resuscitation in 5A group versus saline or sham treatment; also recorded: decreases total peripheral resistance
same,cardiac output,hypovolemic shock; of sham group,about 80%
same,stroke volume,hypovolemic shock; of sham group,about 85%
same,mean arterial pressure,hypovolemic shock; of the sham group,60-70%
same,cardiac output versus saline group,"hypovolemic shock; rat, in vivo",significantly elevated; also recorded: restores or significantly improves
same,mean arterial pressure versus saline,"hypovolemic shock; rat, in vivo",not significantly different; also recorded: no significant effects
same,stroke volume versus saline group,"hypovolemic shock; rat, in vivo",elevated relative to saline group
same,systemic hematocrit versus saline treated group,"hypovolemic shock; rat, in vivo",no significant effects
same,heart rate,hypovolemic shock; versus other groups,about the same; also recorded: no significant effects
same,survival of mice versus vehicle control,B16-F10 murine melanoma,significant increase in the survival
